Key:
[1] = tested on: cortical spreading depression; assay: Number of cortical spreading depressions evoked over 90 minutes; type: in vivo, rat; settings: CSD stimulus every nine minutes for 90 minutes, an hour after intravenous injection, n=3
From the text: (§1) Animals are stabilized for an hour under anesthesia (1.5% isoflurane in oxygen) after head sutures are removed, eyes coated with Artificial Tears and animals made ready for initiation and recording of CSD under deeper (5%) isoflurane in oxygen, which is then lowered back to 1.5% isoflurane in oxygen during CSD recordings. CSD is initiated as described above one to four hours after antibody infusion. All animals receive nine KCl injections. Then, isoflurane is raised to 5% and animals anesthetized with intraperitoneal ketamine and Xylazine followed quickly by euthanasia via intra-cardiac perfusion with 0.1 mL heparin (1,000 units/ml), then 250 ml of normal saline and finally 250 ml 4% paraformaldehyde in 0.2 M phosphate buffer. Brains plus upper cervical cord and trigeminal ganglia are harvested for measurement of c-fos immunostaining in the trigeminocervical complex and CGRP and oxidative stress (malondialdehyde) levels in the trigeminal ganglion ipsilateral to CSD. Animal groups and endpoints are defined below.
First, the inventors confirmed that there was no significant difference in the number of evoked CSDs between groups (FIG. 16). Sham nasal delivery was, as reported (i.e., 50 μl succinate buffer delivered as 5 μl aliquots to alternating nostrils every two minutes) while under isoflurane inhalational anesthesia (Won and Kraig, 2020). […]

[2] = tested on: trigeminocervical complex c-fos; assay: Trigeminocervical c-fos immunostaining after recurrent CSD, nasal IGF-1 with or without intravenous anti-CGRP antibody (Example 5); type: in vivo, rat
Protocol: (§2) Migraine will be modeled using recurrent CSD (Grinberg et al., 2019; Won and Kraig 2019a,b; Won and Kraig, 2020). Briefly, the day before recurrent CSD, animals are anesthetized with inhalational isoflurane in oxygen (2-5%) and treated with intranasal IGF-1 (150 μg in 50 μl succinate buffer).
Anesthetized animals are then transferred to a standard stereotaxic head holder under 2-5% isoflurane inhalational anesthesia. Eyes are coated with Artificial Tears and head shaved, cleansed with Betadine, and 0.1 mL of 0.25% Bupivacaine is injected subcutaneously to either side of what will be a left of midline head incision made five minutes later. The underlying skull is scraped free of soft tissue and hemostasis achieved with bone wax. Two 1-2 mm craniotomies are drilled with a Dremel tool at +3 mm anterior to bregma and two mm lateral to the midline (for 0.5M KCl 10-30 nL pressure injections used to initiate CSD. A second craniotomy is placed six mm caudal to bregma and 4.5 mm lateral to the midline (for recording CSD. The surgery area is wiped with Betadine and incision closed with three wound clips. Animals are allowed to awaken and then returned to overnight standard Animal Facility Housing.
(§3) The next day (i.e., 20-24 hours later) animals are again be anesthetized as above with inhalational isoflurane and the left femoral vein cannulated for antibody infusion. Select groups of animals (see below) are treated with intravenous infusion either 1 mg/kg anti-CGRP (ab81887) or isotype IgG2a control in 0.5-0.6 ml normal saline. After infusions, the femoral incision is closed with wound clips.
as §1, with “Brains plus upper cervical cord and trigeminal ganglia are harvested for measurement of c-fos immunostaining in the trigeminocervical complex and CGRP and oxidative stress (malondialdehyde) levels in the trigeminal ganglion ipsilateral to CSD. Animal groups and endpoints are defined below.” left out
2. […] All animals for nasal delivery of IGF-1 plus intravenous treatment (i.e., one ml saline or anti-CGRP antibody) followed by 90 minutes of evoked CSDs) were analyzed for trigeminal cervical complex c-fos immunostaining and trigeminal ganglion malondialdehyde immunostaining as previously described (Won and Kraig, 2020). […]

[3] = tested on: spreading depression; settings: cited from earlier work
[4] = tested on: trigeminal ganglion malondialdehyde (MDA); assay: Trigeminal ganglion V1 malondialdehyde immunostaining after recurrent CSD, nasal IGF-1 with or without intravenous anti-CGRP antibody (Example 5); type: in vivo, rat
Protocol: as §2, §3
Animals are stabilized for an hour under anesthesia (1.5% isoflurane in oxygen) after head sutures are removed, eyes coated with Artificial Tears and animals made ready for initiation and recording of CSD under deeper (5%) isoflurane in oxygen, which is then lowered back to 1.5% isoflurane in oxygen during CSD recordings. CSD is initiated as described above one to four hours after antibody infusion. All animals receive nine KCl injections. […]
2. […] All animals for nasal delivery of IGF-1 plus intravenous treatment (i.e., one ml saline or anti-CGRP antibody) followed by 90 minutes of evoked CSDs) were analyzed for trigeminal cervical complex c-fos immunostaining and trigeminal ganglion malondialdehyde immunostaining as previously described (Won and Kraig, 2020).
The inventors used a verified method of quantifying immunostaining log-ratios (experimental/sham) as a further means to reduce potential run-to-run variations in immunostaining for malondialdehyde, CGRP and c-fos positive cells (Won and Kraig, 2020). Images of malondialdehyde and CGRP were analyzed in blinded pairs so that they could be converted once decoded to ratios of experimental/sham image integrated optical intensity, a sensitive metric that not only accounts for the area but also the pixel intensity of related image fluorescence.

Substance: IGF-1: human recombinant IGF-1 (#191-G1; R&D Systems), 150 μg in 50 μL sodium succinate buffer, delivered nose-to-brain
- number of CSDs evoked [1]: 7±0.41
- reduction in trigeminocervical c-fos activation from recurrent CSD ([2]; counts from −4.5 and 6.0 mm caudal to the obex): 45%
- ln ratio (IGF-1/sham) of trigeminocervical c-fos ([2]; nasal IGF-1 alone, original Won and Kraig 2020 data, n=5): −0.56±0.08
- ln ratio (IGF-1/sham) of trigeminocervical c-fos ([2]; nasal IGF-1 plus intravenous saline a day later, new data, n=3): −0.548±0.16
- ln ratio of trigeminocervical c-fos, combined groups ([2]; nasal IGF-1 with or without subsequent intravenous saline, n=10): −0.547±0.11
- protection against SD over sham treatment ([3]; SD from KCl, pretreatment): ~27 fold
- spreading depression in whole animals ([3]; nasal delivery): significantly inhibited spreading depression in whole animals
- ln ratio of trigeminal ganglion MDA immunostaining ([4]; nasal IGF-1 alone, as previously reported (Won and Kraig, 2020), n=5): −1.76±0.29
- ln ratio of trigeminal ganglion MDA immunostaining ([4]; nasal IGF-1 plus intravenous saline, n=3): −1.75±0.56
- ln ratio of trigeminal ganglion MDA immunostaining, combined groups ([4]; nasal IGF-1 with or without intravenous saline / nasal succinate, n=8): −1.76±0.39
